ChEMBL document CHEMBL1201862, “PubChem BioAssay data set” (2004)
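Cells were grown in 96-well plates and exposed to each compound for 48 hours at five concentrations; endpoints were interpolated linearly between bracketing concentrations, or set to the highest concentration if not reached. GI50 is the concentration that inhibits growth by half.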 Activity calls are given as the source filed them. Rule as the data show it: active = GI50 up to about 1.1 µM and inactive = higher.

Tests used:
Assay in all cases: NCI tumour cell line growth inhibition, 48 h
[1] = system: 786-0
[2] = system: A549
[3] = system: ACHN
[4] = system: COLO 205
[5] = system: HCC 2998
[6] = system: IGROV-1
[7] = system: K562
[8] = system: M14
[9] = system: MOLT-4
[10] = system: NCI-H226
[11] = system: OVCAR-5
[12] = system: SK-MEL-28
[13] = system: SN12C
[14] = system: SNB-75
[15] = system: SW-620
[16] = system: UO-31
[17] = system: SF-268

Measured: GI50

CC(C)(C)C1CCC(O)(c2ccccc2)CC1 (stereo unspecified)
inactive: [1] 63.2 µM | [2] > 100 µM | [3] > 100 µM | [4] > 100 µM | [5] > 100 µM | [6] > 100 µM | [7] 47.6 µM | [8] 71.8 µM | [9] 59.8 µM | [10] > 100 µM | [11] > 100 µM | [12] > 100 µM | [13] 69.5 µM | [14] 86.7 µM | [15] > 100 µM | [16] > 100 µM

Cc1ccc2c(c1)-c1c3c(nn1-c1ccccc1)-c1ccccc1SC3O2 (stereo unspecified)
inactive: [1] > 100 µM | [2] > 100 µM | [3] > 100 µM | [4] > 100 µM | [5] > 100 µM | [6] > 100 µM | [7] > 100 µM | [9] > 100 µM | [11] 97.1 µM | [17] > 100 µM | [12] > 100 µM | [14] > 100 µM | [15] > 100 µM | [16] > 100 µM

N=S(c1ccccc1)c1ccccc1[N+](=O)[O-] (stereo unspecified)
inactive: [1] 14.9 µM | [2] 16.7 µM | [3] 17.3 µM | [4] 19.8 µM | [5] 19.1 µM | [6] 18.1 µM | [7] 10.4 µM | [8] 14.4 µM | [9] 25.3 µM | [10] 11.9 µM | [11] 20.1 µM | [17] 19.8 µM | [13] 15.8 µM | [14] 25.8 µM | [15] 16.9 µM | [16] 16 µM

Cc1ccc(S(=O)(=O)NCCCN(CCCNS(=O)(=O)c2ccc(C)cc2)S(=O)(=O)c2ccc(C)cc2)cc1
inactive: [1] > 100 µM | [2] > 100 µM | [3] > 100 µM | [4] > 100 µM | [5] > 100 µM | [6] > 100 µM | [7] > 100 µM | [8] > 100 µM | [9] > 100 µM | [10] > 100 µM | [17] > 100 µM | [12] > 100 µM | [13] > 100 µM | [14] > 100 µM | [15] > 100 µM | [16] > 100 µM

CN/N=C(/c1nc2ccc([N+](=O)[O-])cc2nc1O)C(O)c1ccc(C(O)/C(=N\NC)c2nc3ccc([N+](=O)[O-])cc3nc2O)cc1 (stereo unspecified)
inactive: [1] > 100 µM | [2] 64.6 µM | [3] 46.9 µM | [4] 64.9 µM | [5] 23.9 µM | [6] > 100 µM | [7] 32.5 µM | [8] 52.4 µM | [9] 48.2 µM | [10] > 100 µM | [11] > 100 µM | [17] > 100 µM | [12] > 100 µM | [14] > 100 µM | [15] 82.8 µM | [16] 55 µM

C/C(=N\NS(=O)(=O)c1ccc(C)cc1)c1c(O)cc(C)oc1=O
inactive: [1] > 100 µM | [2] > 100 µM | [3] > 100 µM | [5] > 100 µM | [6] > 100 µM | [7] > 100 µM | [8] > 100 µM | [9] > 100 µM | [10] > 100 µM | [17] > 100 µM | [12] > 100 µM | [13] > 100 µM | [14] > 100 µM | [15] > 100 µM | [16] > 100 µM

COc1ccc(S(=O)(=O)N[C@H](C(=O)O)c2ccccc2)cc1
inactive: [1] > 100 µM | [2] > 100 µM | [3] > 100 µM | [4] > 100 µM | [5] > 100 µM | [6] > 100 µM | [7] > 100 µM | [8] > 100 µM | [9] > 100 µM | [10] > 100 µM | [11] > 100 µM | [17] > 100 µM | [12] > 100 µM | [13] > 100 µM | [14] > 100 µM | [15] > 100 µM | [16] > 100 µM

N#CC1(Cc2ccc(N)cc2)c2ccccc2C=CN1C(=O)c1ccccc1 (stereo unspecified)
inactive: [1] 50.2 µM | [2] 35.7 µM | [3] 31.7 µM | [4] 27.3 µM | [5] > 100 µM | [6] 77.6 µM | [7] 26.5 µM | [8] 25.6 µM | [9] 28.9 µM | [10] 39.2 µM | [11] > 100 µM | [17] 40.6 µM | [12] 79.3 µM | [13] 41.2 µM | [14] 29.3 µM | [15] 68.2 µM | [16] 19.8 µM

COC(=O)C(=O)CC(=O)CCn1[nH]c(=O)c(Cl)c(Cl)c1=O
inactive: [1] > 100 µM | [2] > 100 µM | [3] > 100 µM | [4] > 100 µM | [5] > 100 µM | [6] > 100 µM | [7] > 100 µM | [8] > 100 µM | [10] > 100 µM | [11] > 100 µM | [17] > 100 µM | [12] > 100 µM | [13] > 100 µM | [14] > 100 µM | [15] > 100 µM | [16] > 100 µM

CN(C)/C=N/c1nc2c(ncn2C2OC(CO)C(O)C2O)c(=O)[nH]1 (stereo unspecified)
inactive: [1] > 100 µM | [2] > 100 µM | [3] > 100 µM | [4] > 100 µM | [5] > 100 µM | [6] > 100 µM | [7] > 100 µM | [8] > 100 µM | [9] > 100 µM | [10] > 100 µM | [11] > 100 µM | [17] > 100 µM | [13] > 100 µM | [14] > 100 µM | [15] > 100 µM | [16] > 100 µM

COc1ccc(NC(=O)C/C(C)=N\N=C(N)N)c([N+](=O)[O-])c1
inactive: [1] > 100 µM | [2] > 100 µM | [3] > 100 µM | [4] > 100 µM | [5] > 100 µM | [6] > 100 µM | [7] > 100 µM | [8] > 100 µM | [9] > 100 µM | [10] > 100 µM | [11] > 100 µM | [17] > 100 µM | [12] > 100 µM | [13] > 100 µM | [14] > 100 µM | [16] > 100 µM

CCCCCCN(CCCCCC)C(=O)Cc1c2n(c3ccccc13)Cc1ccccc1-2
inactive: [1] 85.1 µM | [2] 52.8 µM | [3] 50.2 µM | [4] 58.5 µM | [5] 53.7 µM | [7] 33.4 µM | [8] 44.8 µM | [9] 33.3 µM | [10] > 100 µM | [17] 99.1 µM | [12] > 100 µM | [13] 52.5 µM | [14] > 100 µM | [15] 49.5 µM | [16] 44.6 µM

Cc1cc(C)nc(NS(=O)(=O)c2ccc(Nc3c4ccccc4nc4c(C(=O)N5CCN(CCO)CC5)ccc(Cl)c34)cc2)n1
inactive: [1] 68.1 µM | [2] > 100 µM | [4] 63 µM | [5] > 100 µM | [6] > 100 µM | [7] 38.5 µM | [8] 34 µM | [9] 25.9 µM | [10] > 100 µM | [11] > 100 µM | [17] 76.9 µM | [12] > 100 µM | [13] 94.2 µM | [14] 87.9 µM | [16] > 100 µM

CC1OC(OP(=O)(OCc2ccccc2)OCc2ccccc2)C(OC(=O)c2ccccc2)C(OC(=O)c2ccccc2)C1I (stereo unspecified)
inactive: [1] 50.9 µM | [2] 26.4 µM | [3] 32.6 µM | [4] 30.2 µM | [5] 54.6 µM | [6] 76 µM | [7] 29.3 µM | [8] 37.6 µM | [9] 17.3 µM | [11] 98.6 µM | [17] 52.2 µM | [12] 86.7 µM | [13] 20.9 µM | [14] 9.31 µM | [15] 72.8 µM | [16] 27.4 µM

CCCN(CCC)C(=O)C(=O)c1c(N)[nH]n(-c2ccccc2)c1=O
inactive: [1] > 100 µM | [2] > 100 µM | [3] > 100 µM | [4] > 100 µM | [5] > 100 µM | [6] > 100 µM | [7] 43.5 µM | [8] > 100 µM | [9] > 100 µM | [10] > 100 µM | [11] > 100 µM | [17] > 100 µM | [13] > 100 µM | [15] > 100 µM | [16] > 100 µM

c1ccc2c(c1)SC(=C1Sc3ccccc3S1)S2
inactive: [1] > 100 µM | [2] > 100 µM | [3] > 100 µM | [4] > 100 µM | [5] > 100 µM | [6] > 100 µM | [7] > 100 µM | [8] > 100 µM | [9] > 100 µM | [17] > 100 µM | [12] > 100 µM | [13] > 100 µM | [14] 22.4 µM | [15] > 100 µM | [16] > 100 µM

O=C(/C=C/c1ccccc1F)c1ccc([N+](=O)[O-])cc1
inactive: [1] 26.8 µM | [2] 31.4 µM | [3] 31.2 µM | [4] 35.2 µM | [5] 15.6 µM | [6] 24.3 µM | [7] 5.77 µM | [8] 26.8 µM | [9] 2.07 µM | [17] 27.2 µM | [12] 18.4 µM | [13] 37.8 µM | [14] 4.58 µM | [15] 26.6 µM | [16] 11.6 µM
